ChEMBL document CHEMBL3600372, “Scapairrins A-Q, Labdane-Type Diterpenoids from the Chinese Liverwort Scapania irrigua and Their Cytotoxic Activity” (J Nat Prod, 2015)

Assays:
A549 = experiment: Cytotoxicity against human A549 cells after 24 hrs by MTT assay; assay type: functional, cell-based; conditions: A549, 24 h
MDA-MB-231 = experiment: Cytotoxicity against human MDA-MB-231 cells after 24 hrs by MTT assay; assay type: functional, cell-based; conditions: MDA-MB-231, 24 h
A2780 = experiment: Cytotoxicity against human A2780 cells after 24 hrs by MTT assay; assay type: functional, cell-based; conditions: A2780, 24 h
HeLa = experiment: Cytotoxicity against human HeLa cells after 24 hrs by MTT assay; assay type: functional, cell-based
HT-29 = experiment: Cytotoxicity against human HT-29 cells after 24 hrs by MTT assay; assay type: functional, cell-based; conditions: HT-29, 24 h
HUVEC = experiment: Cytotoxicity against human HUVEC after 24 hrs by MTT assay; assay type: cell-based

Measured: IC50

C/C=C(\C)C(=O)C[C@]1(O)[C@@]2(C)CCCC(C)(C)[C@]2(O)CC[C@@]1(C)O
> 10 µM: A549 | MDA-MB-231 | A2780 | HeLa | HT-29 | HUVEC

C=C([C@@H]1C[C@@H]2[C@@]3(C)[C@@H](O)CCC(C)(C)[C@]3(O)CC[C@@]2(C)O1)[C@@H](C)O
> 10 µM: A549 | MDA-MB-231 | A2780 | HeLa | HT-29 | HUVEC

C=C(C(C)=O)[C@@H]1C[C@H]2[C@@](C)(CC[C@@]3(O)C(C)(C)CCC[C@]23C)O1
5.2 µM: HT-29
8.3 µM: HeLa
> 10 µM: A549
4.2 µM: MDA-MB-231
3 µM: HUVEC
8.6 µM: A2780

COc1cccc2c1C(=O)c1c(O)c3c(c(O)c1C2=O)C[C@@](O)(C(=O)CO)C[C@@H]3O[C@H]1C[C@H](N)[C@H](O)[C@H](C)O1 [DOXORUBICIN]
5.2 µM: HeLa
1.7 µM: HT-29
0.6 µM: MDA-MB-231
6.3 µM: HUVEC

C/C=C(\C)[C@@H]1C[C@H]2[C@@](C)(CC[C@@]3(O)C(C)(C)CCC(=O)[C@]23C)O1
> 10 µM: A549 | MDA-MB-231 | A2780 | HeLa | HT-29 | HUVEC

C[C@@H]1O[C@@]1(C)C(=O)C[C@H]1[C@](C)(O)CC[C@@]2(O)C(C)(C)CCC[C@]12C
> 10 µM: A549 | MDA-MB-231 | A2780 | HeLa | HT-29 | HUVEC

C/C=C(\C)[C@@H]1C[C@H]2[C@@](C)(CC[C@@]3(O)C(C)(C)CCC[C@]23C)O1
> 10 µM: A549 | MDA-MB-231 | A2780 | HeLa | HT-29 | HUVEC

C=C([C@@H]1C[C@H]2[C@@](C)(CC[C@@]3(O)C(C)(C)CCC[C@]23C)O1)[C@@H](C)O
> 10 µM: A549 | MDA-MB-231 | A2780 | HeLa | HT-29 | HUVEC

C[C@H]1O[C@]1(C)C(=O)C[C@H]1[C@](C)(O)CC[C@@]2(O)C(C)(C)CCC[C@]12C
> 10 µM: A549 | MDA-MB-231 | A2780 | HeLa | HT-29 | HUVEC

C=C(C(C)=O)[C@@H]1C[C@@H]2[C@@]3(C)[C@@H](O)CCC(C)(C)[C@]3(O)CC[C@@]2(C)O1
5.8 µM: HT-29
6.6 µM: HeLa
4.1 µM: MDA-MB-231
5.3 µM: A2780
> 10 µM: A549 | HUVEC

C=C([C@@H]1C[C@H]2[C@@](C)(CC[C@@]3(O)C(C)(C)CCC(=O)[C@]23C)O1)[C@@H](C)O
> 10 µM: A549 | MDA-MB-231 | A2780 | HeLa | HT-29 | HUVEC

C=C(C(C)=O)[C@H]1C[C@@H]2[C@@]3(C)[C@@H](O)CCC(C)(C)[C@]3(O)CC[C@@]2(C)O1
> 10 µM: A549 | HUVEC
4.4 µM: A2780
5.5 µM: HeLa
7 µM: HT-29
5.4 µM: MDA-MB-231

C=C([C@H](C)O)[C@@H]1C[C@H]2[C@@](C)(CC[C@@]3(O)C(C)(C)CCC[C@]23C)O1
> 10 µM: A549 | MDA-MB-231 | A2780 | HeLa | HT-29 | HUVEC

C/C=C(\C)C(=O)C[C@H]1[C@](C)(O)CC[C@@]2(O)C(C)(C)CCC[C@]12C
> 10 µM: A549 | MDA-MB-231 | A2780 | HeLa | HT-29 | HUVEC

C[C@@H]1O[C@@]1(C)C(=O)C[C@@H]1[C@@]2(C)[C@@H](O)CCC(C)(C)[C@]2(O)CC[C@@]1(C)O
> 10 µM: A549 | MDA-MB-231 | A2780 | HeLa | HT-29 | HUVEC

C=C(C(C)=O)[C@@H]1C[C@H]2[C@@](C)(CC[C@@]3(O)C(C)(C)CCC(=O)[C@]23C)O1
8.7 µM: HeLa
6.8 µM: HT-29
> 10 µM: A549 | HUVEC
7.8 µM: A2780
5 µM: MDA-MB-231

CC1(C)CCC[C@]2(C)C3=CC(=O)O[C@]3(C)CC[C@@]12O
> 10 µM: A549 | MDA-MB-231 | A2780 | HeLa | HT-29 | HUVEC

C=C([C@H](C)O)[C@@H]1C[C@H]2[C@@](C)(CC[C@@]3(O)C(C)(C)CCC(=O)[C@]23C)O1
> 10 µM: A549 | MDA-MB-231 | A2780 | HeLa | HT-29 | HUVEC

C=C([C@H](C)O)[C@@H]1C[C@@H]2[C@@]3(C)[C@@H](O)CCC(C)(C)[C@]3(O)CC[C@@]2(C)O1
> 10 µM: A549 | MDA-MB-231 | A2780 | HeLa | HT-29 | HUVEC

C[C@H]1O[C@]1(C)C(=O)C[C@@H]1[C@@]2(C)[C@@H](O)CCC(C)(C)[C@]2(O)CC[C@@]1(C)O
> 10 µM: A549 | MDA-MB-231 | A2780 | HeLa | HT-29 | HUVEC

C/C=C(\C)C(=O)C[C@@H]1[C@@]2(C)[C@@H](O)CCC(C)(C)[C@]2(O)CC[C@@]1(C)O
> 10 µM: A549 | MDA-MB-231 | A2780 | HeLa | HT-29 | HUVEC
